Measurements: patent US20180303086A1, “An Antimicrobial Composition” (Conopco, Inc., d/b/a UNILEVER, priority 2015, published 2018)

Test: Solubility product and silver ion solubility of silver compounds in water at 25° C.
Assay type: physicochemical
Conditions: calculated from Ksp, [Ag+]=(Ksp·x)^(1/(x+1))
Text: More particularly, silver ion solubility [Ag+], a value given in mol/L may be calculated using the formula: […]

[Cl][Ag] [Silver chloride]
Silver Ion Solubility [Ag+]: 13 µM
